Source: publication PMC10033419, “Blocking NS3–NS4B interaction inhibits dengue virus in non-human primates” (Nature, 2023)
Values joined by “and” are separate entries in the source; they are usually repeats but may differ in a detail not shown here. Equal values may be shown once.

Assays:
MTS/PMS toxicity assay = type: cell-based, African green monkey; conditions: African green monkey, Vero cells
Protocol: (§1) A potential toxic effect on host cells was tested in parallel, while omitting virus infection, using the MTS/PMS method (Promega) for Vero cells, or by high-content imaging for C6/36 cells, as described previously. […] RT–qPCR data were analysed using the QuantStudio 12K Flex software (v.1.2.3) or SDS v.1.2 Applied Biosystems software. Inhibition values for antiviral molecules were plotted using KaleidaGraph plotting software (v.4.03, Synergy Software).

Vero cells = assay: MTS/PMS toxicity assay; type: cell-based, African green monkey; conditions: EXP1-EXP3, read-out: CC50, single experiments
Protocol: as §1

DENV-2/16681 = assay: NHP DENV-2 study, NS1 ELISA in serum; parameters: species or system rhesus macaques (M. mulatta); conditions: rhesus monkey, in vivo
[1] = tested on: DENV-2 Asian II Papua New Guinea; assay: microbe, parasite or virus in culture; type: cell-based; conditions: Dengue virus, DENV2, Vero C1008
Protocol: (§2) A total of 20 DENV strains, representing the available genotypes within the four DENV serotypes, were used in the in vitro genotype panel, from which 19 viruses were described previously in ref. [3] and one additional virus, DENV-1/45AZ5 (ref. [54]), was added.
as §1

DENV-4 G1 India = assay: microbe, parasite or virus in culture; type: cell-based; conditions: Dengue virus, DENV4, Vero C1008
Protocol: as §2, §1

[2] = tested on: DENV-2 Cosmopolitan France - Toulon; assay: microbe, parasite or virus in culture; type: cell-based; conditions: Dengue virus, DENV2, Vero C1008
Protocol: as §2, §1

[3] = ATPLite cell viability assay; type: cell-based, human; conditions: human, THP-1/DC-SIGN cells
Protocol: In parallel, the toxicity was measured using an ATPLite cell viability luminescence assay (PerkinElmer). The assays were performed in three different cell types (Vero, Huh-7 and THP-1/DC-SIGN) as described in ref. [3] to exclude cell-specific activity of the compound.

in vivo = conditions: rhesus monkey, iv, 1 mg/kg
Protocol: After single intravenous administration, the monkey blood was collected at the BPRC just before dosing, and at 0.05, 0.15, 0.5, 4, 6, 8, 24, 48 and 264 h after dosing. After oral administration, the monkey blood was collected at the BPRC on the first and last day of dosing just before dosing and at 1, 2, 4, 6, 8 and 24 h after dosing that day. Moreover, blood samples were taken on days 3, 6 and 7 after infection just before dosing. For the study at WRAIR, the monkey blood was collected just before dosing and at 1, 4, 8 and 24 h after the first day of dosing and before dosing and at 2, 5, 8, 24 and 96 h after the last day of dosing. Furthermore, blood samples were taken on days 0, 2, 5 and 8 after infection just before dosing. […] A volume of 1 ml blood was collected into a blood collection tube coated with EDTA as anti-coagulant. Within 1 h after collection, the blood samples were centrifuged in a precooled centrifuge for 10 min at 1,500g (4 °C). Within 2 h after blood collection, the plasma samples were stored at −80 °C until shipment. Individual plasma concentration–time profiles were processed for a non-compartmental pharmacokinetics analysis using Phoenix WinNonlin v.6.3. (Certara).

CHIKV S27 = assay: CPE inhibition assay ATPLite, Huh-7; type: cell-based; conditions: Chikungunya virus
TOX-MT4LTRLUC = type: cell-based; conditions: human, MT4LTRLUC cells
Text: Supplement 41586_2023_5790_MOESM14_ESM.xlsx, sheet "Ext. Data Table 1" | column: Mean

DENV-2 RL strain = assay: Delayed-treatment study (therapeutic setting); type: in vivo, AG129 mice; conditions: 30 mg/kg/day, individual mice
[4] = two of three values below threshold
[5] = start treatment day 0 p.i., blood sampling day 3 p.i.
[6] = start treatment day 0 p.i., blood sampling day 4 p.i.
[7] = start treatment day 0 p.i., blood sampling day 5 p.i.
[8] = start treatment day 0 p.i., blood sampling day 6 p.i.
[9] = start treatment day 0 p.i., blood sampling day 7 p.i.
[10] = start treatment day 0 p.i., blood sampling day 8 p.i.
[11] = start treatment day 0 p.i., blood sampling day 9 p.i.
[12] = start treatment day 4 p.i., blood sampling day 3 p.i.
[13] = start treatment day 4 p.i., blood sampling day 4 p.i.
[14] = start treatment day 4 p.i., blood sampling day 5 p.i.

With `COc1cc(N[C@H](C(=O)c2c[nH]c3ccc(OC(F)(F)F)cc23)c2ccc(Cl)cc2OC)cc(S(C)(=O)=O)c1` [JNJ-1802] the CC50 (MTS/PMS toxicity assay; EXP1-EXP3, read-out: CC50, single experiments) was 2770 nM, the CC50 (MTS/PMS toxicity assay; Vero, read-out: CC50) was > 2260 nM and the CC50 (MTS/PMS toxicity assay; mean, read-out: CC50 MEAN) was > 2300 nM. The CC50 (MTS/PMS toxicity assay; median, read-out: CC50 MEDIAN) was > 2000 nM, the CC50 (Vero cells) was > 2000 nM and the “NS1 protein in serum” value (DENV-2/16681) was “positive NS1 signal”. For the same compound, the EC90 [1] was 0.19 ± 0.1 nM, the EC50 ([1]; two of two values below threshold) was < 0.04 nM and the EC90 (DENV-4 G1 India) was 0.762 ± 0.095 nM. For the same compound, the EC50 (DENV-4 G1 India; [4]) was < 0.09 nM, the EC90 ([2]; one of three values below threshold) was 0.28 nM and the EC50 [2, 4] was < 0.0443 nM. The CC50 [3] was > 500 nM, the AUC(0-inf) (in vivo; female, in vivo) was 11800 ng·h/mL and the AUC(0-t) (in vivo; female, plasma) was 6730 ng·h/mL. For the same compound, the clearance (in vivo; female, plasma) was 1.67 ± 0.74 mL/min/kg, the half-life (in vivo; female, plasma) was 50 ± 12 h and the Vdssp (in vivo; in vivo) was 3.93 ± 1.18 L/kg. The EC50 (CHIKV S27; Huh-7) was > 25000 nM, the EC90 (CHIKV S27; Huh-7, read-out: EC90, Mean) was > 25000 nM and the CC50 (TOX-MT4LTRLUC) was 8140 nM. The CC90 (TOX-MT4LTRLUC) was 21200 nM, the “Viral Load Copies/ml” value (DENV-2 RL strain; [5]) was 1.31E+03 Copies/ml and 3.02E+03 Copies/ml and the “Viral Load Log10” value (DENV-2 RL strain; [5]) was 3.1316 Log10 and 3.1169 Log10 and 3.4801 Log10. The “Viral Load Copies/ml” value (DENV-2 RL strain; [6]) was 1.31E+04 Copies/ml and 1.96E+04 Copies/ml and 3.27E+03 Copies/ml and 2.07E+03 Copies/ml, the “Viral Load Log10” value (DENV-2 RL strain; [6]) was 4.1169 Log10 and 4.2930 Log10 and 3.5148 Log10 and 3.3153 Log10 and the “Viral Load Copies/ml” value (DENV-2 RL strain; [7]) was 4.36E+03 Copies/ml and 3.27E+03 Copies/ml and 3.93E+03 Copies/ml. For the same compound, the “Viral Load Log10” value (DENV-2 RL strain; [7]) was 3.6398 Log10 and 3.5148 Log10 and 3.5940 Log10, the “Viral Load Copies/ml” value (DENV-2 RL strain; [8]) was 1.31E+03 Copies/ml and 2.07E+03 Copies/ml and 5.61E+03 Copies/ml and the “Viral Load Log10” value (DENV-2 RL strain; [8]) was 3.1169 Log10 and 3.3153 Log10 and 3.7489 Log10. For the same compound, the “Viral Load Copies/ml” value (DENV-2 RL strain; [9]) was 1.57E+03 Copies/ml and 1.64E+03 Copies/ml and 6.54E+03 Copies/ml and 9.82E+03 Copies/ml, the “Viral Load Log10” value (DENV-2 RL strain; [9]) was 3.8159 Log10 and 3.9919 Log10 and the “Viral Load Copies/ml” value (DENV-2 RL strain; [10]) was 6.54E+03 Copies/ml and 1.96E+04 Copies/ml and 3.27E+03 Copies/ml. For the same compound, the “Viral Load Log10” value (DENV-2 RL strain; [10]) was 3.8159 Log10 and 4.2930 Log10 and 3.5148 Log10, the “Viral Load Copies/ml” value (DENV-2 RL strain; [11]) was 1.31E+03 Copies/ml and 1.64E+03 Copies/ml and the “Viral Load Log10” value (DENV-2 RL strain; [11]) was 3.1169 Log10. For the same compound, the “Viral Load Copies/ml” value (DENV-2 RL strain; [12]) was 1.96E+04 Copies/ml and 8.52E+04 Copies/ml and 2.38E+05 Copies/ml and 1.40E+06 Copies/ml, the “Viral Load Log10” value (DENV-2 RL strain; [12]) was 4.2930 Log10 and 4.9304 Log10 and 5.3771 Log10 and 6.1456 Log10 and the “Viral Load Copies/ml” value (DENV-2 RL strain; [13]) was 5.13E+06 Copies/ml and 8.56E+06 Copies/ml and 1.09E+07 Copies/ml and 3.84E+06 Copies/ml. The “Viral Load Log10” value (DENV-2 RL strain; [13]) was 6.7101 Log10 and 6.9324 Log10 and 7.0387 Log10 and 6.5839 Log10, the “Viral Load Copies/ml” value (DENV-2 RL strain; [14]) was 1.69E+05 Copies/ml and 1.30E+06 Copies/ml and 9.49E+05 Copies/ml and 2.98E+05 Copies/ml and the “Viral Load Log10” value (DENV-2 RL strain; [14]) was 5.8093 Log10 and 5.2288 Log10 and 6.1145 Log10 and 5.9771 Log10 and 5.4737 Log10.
